Measurements reported in patent US11952358B2, “Flavan-3-ol analogs and anti-inflammatory activity” (Hong Kong Baptist University, priority 2021, dated 2024).

Tested on: IL-1β
Assay: ELISA of IL-1β secretion from LPS-stimulated RAW 264.7 cells
Assay type: cell-based, mouse
Conditions: compound 50 μM 24 h, then LPS 1 μg/mL 2 h (FIG. 8)
Method: RAW 264.7 cells were pretreated with each compound (50 μM) for 24 h followed by LPS (1 μg/mL) stimulation for another 2 h. The concentrations of IL-1β in RAW 264.7 cell culture supernatants were measured by ELISA kits and the inhibition rate of compound on the secretion of each pro-inflammatory cytokine was calculated. Data from three independent experiments were expressed as means±SD. *P<0.05, **P<0.01 compared with LPS-stimulated group.
Cell culture The RAW 264.7 cell line was purchased from the Cell Bank of Shanghai Institute of Biochemistry & Cell Biology at the Chinese Academy of Sciences (Shanghai, China) and cultured in DMEM supplemented with 10% (v/v) fetal bovine serum (FBS), 100 U/ml penicillin and 100 […], in a stable environment with 5% CO2 at 37° C. Before used in the following in vitro experiments, RAW 264.7 cells were pretreated with synthesized flavan-3-ol (25, 50 μM) for 24 h followed by LPS (1 μg/mL) stimulation for another 2 h.
Enzyme-Linked Immunosorbent Assay (ELISA) RAW 264.7 cells were treated with these synthesized flavan-3-ols (25, 50 μM) for 24 h followed by LPS (1 μg/mL) stimulation for another 2 h and the culture supernatant was collected. The concentrations of IL-1β, IL-6 and TNF-α in the culture supernatant of RAW 264.7 cells were determined according to the manufacturer's instructions of the Duo-set enzyme linked immune sorbent assay kits, purchased from R&D Systems Co. Ltd. (Minneapolis, MN, USA).
The increased pro-inflammatory cytokines production in RAW 264.7 cells has been reported to play an influential role in the inflammation response. To evaluate the anti-inflammatory effects of these flavan-3-ols in vitro, ELISA kits were employed to investigate their effects on the LPS (lipopolysaccharide)-induced pro-inflammatory cytokines production of RAW 264.7 cells. After treating with the flavan-3-ols (25 and 50 μM) and stimulated by LPS, the levels of three main pro-inflammation cytokines including IL-1β ([…]), IL-6 (interleukin-6), and TNF-α (tumor necrosis factor-α) in culture supernatant from RAW 264.7 cells were measured by ELISA kits, and then the inhibition rates of the flavan-3-ols on the secretion of each pro-inflammatory cytokine were calculated by the formula shown as follows.
[formula] In this formula, “L” refers to “the pro-inflammatory cytokine level in cell culture supernatant of LPS-induced group (L)” and “Lc” refers to “the pro-inflammatory cytokine level in cell culture supernatant of compound-treated group (Lc)”. Using this calculation, the reduced levels of pro-inflammation cytokines in the compound treated group would give higher values, which reflect higher inhibition rates.
FIG. 4a-c show the effect of flavan-3-ols on pro-inflammatory cytokine secretion in vitro. RAW 264.7 cells were pretreated with each compound (25, 50 μM) for 24 h followed by LPS (1 μg/mL) stimulation for another 2 h. The concentrations of IL-1β, IL-6, TNF-α in RAW 264.7 cell culture supernatants were measured by ELISA kits and the inhibition rate of compound on the secretion of each pro-inflammatory cytokine was calculated.
With `O[C@H]1Cc2ccccc2O[C@@H]1c1ccco1` [3o, (2S,3S)-2-(furan-2-yl)chroman-3-ol] the “inhibition rate of IL-1β secretion compared with enantiomer and racemic form” value was “higher inhibition rates than their enantiomers”.
With `CCC[C@@H]1Oc2ccccc2C[C@H]1O` [3p′, (2S,3R)-2-propylchroman-3-ol] the “inhibition rate of IL-1β secretion compared with enantiomer and racemic form” value was “higher inhibition rate of IL-1β secretion than its racemic mixture”.
In the case of `O[C@H]1Cc2cc(Cl)ccc2O[C@@H]1c1ccccc1` [3ae, (2R,3S)-6-chloro-2-phenylchroman-3-ol], the “inhibition rate of IL-1β secretion compared with enantiomer and racemic form” value is reported as “higher inhibition rates than their enantiomers”.

Tested on: LPS-stimulated RAW 264.7 cells
Assay: RNA-sequencing analysis with GO and KEGG enrichment
Assay type: cell-based, mouse
Conditions: 50 μM; vs LPS-stimulated group; KEGG-classified inflammation-related genes
Method: RNA-sequencing analysis RAW 264.7 cells were treated with each flavan-3-ol (25, 50 μM) for 24 h followed by LPS (1 μg/mL) stimulation for another 2 h. Cells were collected and then directly prepared for cDNAs amplification and RNA-Seq library construction. Total RNA was isolated with TRIzol reagent from each group. A complementary DNA library was prepared and sequencing was performed according to the Illumina standard protocol developed by Suzhou GENEWIZ Biological Technology Co., Ltd. (https://www.genewiz.com). […] After filtering, reference genome and gene model annotation files were downloaded from a genome website browser (NCBI/UCSC/Ensembl). Indexes of the reference genome were built using Bowtie v2.0.6 and paired-end clean reads were aligned to the reference genome using TopHat v2.0.9. Bowtie was used for a BWT (Burrows-Wheeler Transformer) algorithm for mapping reads to the genome and Tophat can generate a database of splice junctions based on the gene model annotation file and thus achieve a better mapping result than other non-splice mapping tools. For the quantification of gene expression level, HTSeq V0.6.1 was used to count the read numbers mapped for each gene. The RPKM of each gene was calculated based on the gene read counts mapped to this gene. A differential expression analysis was performed using the DESeq R package (1.10.1). For clustering, the inventors clustered different samples to see the correlation using hierarchical clustering distance method with the function of heatmap, SOM (Self-organization mapping) and k means using silhouette coefficient to adapt the optimal classification with default parameter in R. The complete RNA-seq datasets in this manuscript captioned has been deposited at GEO database (http://www.ncbi.nlm.nih.gov/geo/) under accession ID GSE181052.
Gene ontology (GO) and KEGG enrichment analysis GO enrichment analysis of differentially expressed genes was implemented by the GOseq R Package, in which gene length bias was corrected. GO analysis was performed with the DAVID online tool (https://david.ncifcrf.gov/). Top GO categories were selected according to the P-values. Pathways of differentially expressed genes were analyzed by the KEGG database (http://www.kegg.jp/kegg/). The inventors used KOBAS software to test the statistical enrichment of differential expression genes in KEGG pathways.
RNA-seq analysis of downstream genes regulated by flavan-3-ols. […] RNA-seq analysis was performed to further study the effects of compounds 3m, 3o, 3p, 3ae and 3ag on gene transcriptional pathways related to inflammation. RAW 264.7 cells were used in the RNA-seq analysis, in which cells were pretreated with each compound (50 μM) for 24 h followed by LPS (1 μg/mL) stimulation for another 2 h. […] Next, the inventors focused on genes related to inflammatory reactions and inflammation-related diseases (inflammation-related genes) based on the gene and pathway classification of Kyoto Encyclopedia of Genes and Genomes (KEGG database).
To further analyze the functional distribution of differentially-expressed genes in relation to different biological processes, cellular components and molecular functions, gene ontology (GO) enrichment analysis was performed. The histogram of GO enrichment of differentially-expressed genes was presented.
Furthermore, to determine the biochemical metabolic pathways and signal transduction pathways involved in differentially expressed genes regulated by compound 3ag, KEGG pathway analysis was then performed.
With `O[C@H]1Cc2ccccc2O[C@@H]1c1ccco1` [3o, (2S,3S)-2-(furan-2-yl)chroman-3-ol] the inflammation-related genes downregulated was “downregulated parts of inflammation-related genes”.
In the case of `O[C@H]1Cc2cc(Cl)ccc2O[C@@H]1c1ccccc1` [3ae, (2R,3S)-6-chloro-2-phenylchroman-3-ol], the inflammation-related genes downregulated is reported as “downregulated parts of inflammation-related genes”.
With `CCC[C@H]1Oc2ccccc2C[C@@H]1O` [3p, (2R,3S)-2-propylchroman-3-ol] the inflammation-related genes downregulated was “downregulated parts of inflammation-related genes”.

Tested on: not given
Assay: not given
Conditions: not given
`Oc1ccc2c(c1)C[C@H](O)[C@@H](c1ccccc1)O2` [3ac, (2R,3S)-2-phenylchromane-3,6-diol] showed a melting point of 187 to 188 °C.
`Cc1cc(C)cc([C@H]2Oc3ccccc3C[C@@H]2O)c1` [3l, (2R,3S)-2-(3,5-dimethylphenyl)chroman-3-ol] gave a melting point of 135 to 136 °C.
With `Oc1ccc2c(c1)C=C[C@H](c1ccccc1)O2` [1ac, (R)-2-phenyl-2H-chromen-6-ol] the melting point was 81 to 82 °C.
`O[C@H]1Cc2cc(Cl)ccc2O[C@@H]1c1ccc(Cl)cc1` [3ah, (2R,3S)-6-chloro-2-(4-chlorophenyl)chroman-3-ol] gave a melting point of 138 to 139 °C.
`Cc1cc2c(cc1C)O[C@H](c1ccccc1)[C@@H](O)C2` [3v, (2R,3S)-6,7-dimethyl-2-phenylchroman-3-ol] gave a melting point of 151 to 152 °C.
Compound `COc1ccc2c(c1)C[C@H](O)[C@@H](c1ccccc1)O2` [3x, (2R,3S)-6-methoxy-2-phenylchroman-3-ol] has a melting point of 118 to 119 °C.
For `COCOc1ccc2c(c1)C[C@H](O)[C@@H](c1ccccc1)O2` [3ab, (2R,3S)-6-(methoxymethoxy)-2-phenylchroman-3-ol], the melting point was 65 to 66 °C.
`Cc1ccc2c(c1)O[C@H](c1ccccc1)[C@@H](O)C2` [3s, (2R,3S)-7-methyl-2-phenylchroman-3-ol] showed a melting point of 95 to 96 °C.
Compound `O[C@H]1Cc2ccccc2O[C@@H]1c1ccco1` [3o, (2S,3S)-2-(furan-2-yl)chroman-3-ol] has a melting point of 80 to 81 °C.
In the case of `O[C@H]1Cc2ccccc2O[C@@H]1c1ccc(OCc2ccccc2)cc1` [3d, (2R,3S)-2-(4-(benzyloxy)phenyl)chroman-3-ol], the melting point is reported as 113 to 114 °C.
`Cc1ccccc1[C@H]1Oc2ccccc2C[C@@H]1O` [3j, (2R,3S)-2-(o-tolyl)chroman-3-ol] gave a melting point of 91 to 92 °C.
Work on `O[C@H]1Cc2ccccc2O[C@@H]1c1ccc(F)cc1` [3f, (2R,3S)-2-(4-fluorophenyl)chroman-3-ol] yielded a melting point of 99 to 100 °C.
Compound `O[C@H]1Cc2cc(Cl)ccc2O[C@@H]1c1ccccc1` [3ae, (2R,3S)-6-chloro-2-phenylchroman-3-ol] has a melting point of 130 to 131 °C.
With `Cc1cc2c(cc1Cl)C[C@H](O)[C@@H](c1ccccc1)O2` [3af, (2R,3S)-6-chloro-7-methyl-2-phenylchroman-3-ol] the melting point was 129 to 130 °C.
Compound `C1=C[C@H](c2ccc(OCc3ccccc3)cc2)Oc2ccccc21` [1d, (R)-2-(4-(benzyloxy)phenyl)-2H-chromene] has a melting point of 92 to 93 °C.
For `COc1cccc2c1C[C@H](O)[C@@H](c1ccccc1)O2` [3w, (2R,3S)-5-methoxy-2-phenylchroman-3-ol], the melting point was 116 to 117 °C.
`COc1cccc2c1O[C@H](c1ccccc1)[C@@H](O)C2` [3z, (2R,3S)-8-methoxy-2-phenylchroman-3-ol] showed a melting point of 151 to 152 °C.
Work on `Cc1ccc([C@H]2Oc3ccccc3C[C@@H]2O)cc1` [3b, (2R,3S)-2-(p-tolyl)chroman-3-ol] yielded a melting point of 68 to 69 °C.
For `O[C@H]1Cc2ccccc2O[C@@H]1c1ccc(Cl)cc1` [3g, (2R,3S)-2-(4-chlorophenyl)chroman-3-ol], the melting point was 109 to 110 °C.
For `Cc1cc(C)c2c(c1)O[C@H](c1ccccc1)[C@@H](O)C2` [3u, (2R,3S)-5,7-dimethyl-2-phenylchroman-3-ol], the melting point was 149 to 150 °C.
For `COc1ccc([C@H]2Oc3ccccc3C[C@@H]2O)cc1` [3c, (2R,3S)-2-(4-methoxyphenyl)chroman-3-ol], the melting point was 89 to 90 °C.
With `Cc1cccc([C@H]2Oc3ccccc3C[C@@H]2O)c1` [3k, (2R,3S)-2-(m-tolyl)chroman-3-ol] the melting point was 88 to 89 °C.
Compound `COCOc1ccc([C@H]2Oc3ccccc3C[C@@H]2O)cc1` [3e, (2R,3S)-2-(4-(methoxymethoxy)phenyl)chroman-3-ol] has a melting point of 97 to 98 °C.
Work on `O[C@H]1Cc2ccccc2O[C@@H]1c1ccc(Br)cc1` [3h, (2R,3S)-2-(4-bromophenyl)chroman-3-ol] yielded a melting point of 109 to 110 °C.
With `COCOc1ccc2c(c1)C=C[C@H](c1ccccc1)O2` [1ab, (R)-6-(methoxymethoxy)-2-phenyl-2H-chromene] the melting point was 69 to 70 °C.
`Cc1cccc2c1O[C@H](c1ccccc1)[C@@H](O)C2` [3t, (2R,3S)-8-methyl-2-phenylchroman-3-ol] showed a melting point of 68 to 69 °C.
`Oc1ccc([C@H]2Oc3ccccc3C[C@@H]2O)cc1` [compound 5, (2R,3S)-2-(4-hydroxyphenyl)chroman-3-ol] showed a melting point of 106 to 107 °C.
Compound `Cc1cccc2c1C[C@H](O)[C@@H](c1ccccc1)O2` [3q, (2R,3S)-5-methyl-2-phenylchroman-3-ol] has a melting point of 116 to 117 °C.
`Cc1ccc2c(c1)C[C@H](O)[C@@H](c1ccccc1)O2` [3r, (2R,3S)-6-methyl-2-phenylchroman-3-ol] showed a melting point of 109 to 110 °C.
